Where a SMILES comes first, the peptide text is derived from it. Bridges are numbered along the chain shown (N, C = ends). [ ]: non-standard residue; d: D form. The star is where a group is joined. hPhe(3-Cl-4-CF3) = N[C@@H](CCc1ccc(C(F)(F)F)c(Cl)c1)C(=O)O; NPrPhe(4-CF3) = CCCN[C@@H](Cc1ccc(C(F)(F)F)cc1)C(=O)O; NMeNva(3-Et) = CCC(CC)[C@H](NC)C(=O)O; NMeD = CN[C@@H](CC(=O)O)C(=O)O; NMeNva = CCC[C@H](NC)C(=O)O; Morpholide = C1CN(*)CCO1; NMeA = CN[C@@H](C)C(=O)O; Aze = O=C(O)[C@@H]1CCN1; Ac4c = NC1(C(=O)O)CCC1; Sar = CNCC(=O)O
Columns and labels:
[1] = tested on: human lung cancer strain NCI-H441; experiment: cells; details: NCI-H441, 96 h, read-out: NCI-H441 IC50 (nM), NCI-H441 cell proliferation, 4 days, CellTiter-Glo;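 further: cell proliferation inhibition after four days measured by CellTiter-Glo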
[2] = biological target: GDP-bound HRAS wild-type protein (Homo sapiens, UniProt P01112); experiment: Binding to HRAS by surface plasmon resonance (SPR), Single Cycle Kinetics; details: ratio of KD for GDP-bound HRAS wild-type protein to KD for KRAS, SPR
[3] = biological target: GDP-bound KRAS wild-type protein (Homo sapiens, UniProt P01116); experiment: Binding to KRAS by surface plasmon resonance (SPR), Single Cycle Kinetics; details: SPR, Single Cycle Kinetics, GDP-bound KRAS wild-type protein; read-out: KRAS KD
[4] = biological target: GDP-bound NRAS wild-type protein (Homo sapiens, UniProt P01111); experiment: Binding to NRAS by surface plasmon resonance (SPR), Single Cycle Kinetics; details: ratio of KD for GDP-bound NRAS wild-type protein to KD for KRAS, SPR
Sequence of GDP-bound NRAS wild-type protein (P01111 whole entry): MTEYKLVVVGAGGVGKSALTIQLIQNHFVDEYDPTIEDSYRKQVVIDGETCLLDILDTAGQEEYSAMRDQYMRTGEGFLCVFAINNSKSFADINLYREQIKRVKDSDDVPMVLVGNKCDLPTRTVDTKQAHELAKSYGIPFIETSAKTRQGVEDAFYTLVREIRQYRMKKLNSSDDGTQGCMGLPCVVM

Sequence of GDP-bound KRAS wild-type protein (P01116 whole entry): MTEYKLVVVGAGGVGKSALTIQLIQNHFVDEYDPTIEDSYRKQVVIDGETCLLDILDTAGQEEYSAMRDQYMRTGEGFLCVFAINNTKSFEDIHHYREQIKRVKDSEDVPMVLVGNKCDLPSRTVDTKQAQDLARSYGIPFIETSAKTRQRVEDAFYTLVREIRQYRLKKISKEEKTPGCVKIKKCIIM
Sequence of GDP-bound HRAS wild-type protein (P01112 whole entry): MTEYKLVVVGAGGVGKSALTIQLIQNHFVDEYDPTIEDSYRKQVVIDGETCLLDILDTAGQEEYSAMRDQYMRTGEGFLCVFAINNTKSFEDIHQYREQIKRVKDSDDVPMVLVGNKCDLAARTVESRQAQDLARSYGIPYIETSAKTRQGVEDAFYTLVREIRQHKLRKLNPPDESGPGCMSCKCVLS

Row | SMILES | IC50 [1] | HRAS/KRAS (KD ratio) [2] | Kd [3] | NRAS/KRAS (KD ratio) [4]
1 | CCO[C@@H]1C[C@H]2C(=O)NC3(CC(C)(C)C3)C(=O)N(C)[C@@H](C3CCCC3)C(=O)N(C)[C@H](C(=O)N(C)C)CC(=O)N(C)[C@@H](C(C)C)C(=O)N[C@@H]([C@@H](C)CC)C(=O)N(C)CC(=O)N(C)[C@H]3C/C=C\CCN(C3=O)[C@@H](Cc3ccc(C(F)(F)F)cc3)C(=O)N(C)CC(=O)N[C@@H](CCc3ccc(C(F)(F)F)c(OC)c3)C(=O)N2C1 [PP1979] | 12.5 nM | A (a compound having 10 or more and less than 20 is denoted as A) | 0.087 nM | AA (a compound having 20 or more is denoted as AA)
2 | CCCN(C)C(=O)[C@@H]1CC(=O)N(C)[C@@H](CC(F)F)C(=O)N[C@@H]([C@@H](C)CC)C(=O)N(C)CC(=O)N(C)[C@H]2C/C=C\CCN(C2=O)[C@@H](Cc2ccc(C(F)(F)F)cc2)C(=O)N(C)CC(=O)N[C@@H](CCc2ccc(C(F)(F)F)c(OC)c2)C(=O)N2C[C@H](OCC)C[C@H]2C(=O)NC2(CCC2)C(=O)N(C)[C@@H](C2CCCC2)C(=O)N1C [PP2013] | 7.7 nM | B (a compound having 3 or more and less than 10 is denoted as B) | 0.13 nM | A (a compound having 10 or more and less than 20 is denoted as A)
3 | CCCN(C)C(=O)[C@@H]1CC(=O)N(C)[C@@H](C2CC2)C(=O)N[C@@H]([C@@H](C)CC)C(=O)N(C)CC(=O)N(C)[C@H]2C/C=C\CCN(C2=O)[C@@H](Cc2ccc(C(F)(F)F)cc2)C(=O)N(C)CC(=O)N[C@@H](CCc2ccc(C(F)(F)F)c(OC)c2)C(=O)N2C[C@H](OCC)C[C@H]2C(=O)NC2(CC(C)(C)C2)C(=O)N(C)[C@@H](C2CCCC2)C(=O)N1C [PP1983] | 20.2 nM | A (a compound having 10 or more and less than 20 is denoted as A) | 0.14 nM | AA (a compound having 20 or more is denoted as AA)
4 | CCCN1C(=O)C[C@@H](C(=O)N(C)C)N(C)C(=O)[C@H](C2CCCC2)N(C)C(=O)C2(CCC2)NC(=O)[C@@H]2C[C@@H](OCC)CN2C(=O)[C@H](CCc2cc(F)c(C(F)(F)F)c(F)c2)NC(=O)CN(C)C(=O)[C@H](Cc2ccc(C(F)(F)F)cc2)N2CC/C=C\C[C@@H](C2=O)N(C)C(=O)CNC(=O)[C@H]([C@@H](C)CC)NC(=O)[C@@H]1CC(C)C [PP1826] | 17.6 nM | A (a compound having 10 or more and less than 20 is denoted as A) | 0.32 nM | A (a compound having 10 or more and less than 20 is denoted as A)
5 | CCCOC[C@H]1C(=O)N[C@@H]([C@@H](C)CC)C(=O)N(C)CC(=O)N(C)[C@H]2C/C=C\CCN(C2=O)[C@@H](Cc2ccc(C(F)(F)F)cc2)C(=O)N(C)CC(=O)N[C@@H](CCc2cc(F)c(C(F)(F)F)c(F)c2)C(=O)N2CC(F)(F)C[C@H]2C(=O)NC2(CC(C)(C)C2)C(=O)N(C)[C@@H](C2CCCC2)C(=O)N(C)[C@H](C(=O)N(C)C)CC(=O)N1C [PP1718] | 2.5 nM | A (a compound having 10 or more and less than 20 is denoted as A) | 0.067 nM | AA (a compound having 20 or more is denoted as AA)
6 | CCO[C@@H]1C[C@H]2C(=O)NC3(CC(C)(C)C3)C(=O)N(C)[C@@H](C3CCCC3)C(=O)N(C)[C@H](C(=O)N(C)C)CC(=O)N(C)[C@@H](C)C(=O)N[C@@H]([C@@H](C)CC)C(=O)N(C)CC(=O)N(C)[C@H]3C/C=C\CCN(C3=O)[C@@H](Cc3ccc(C(F)(F)F)cc3)C(=O)N(C)CC(=O)N[C@@H](CCc3cc(F)c(C(F)(F)F)c(F)c3)C(=O)N2C1 [PP1641] | 4.6 nM | A (a compound having 10 or more and less than 20 is denoted as A) | 0.098 nM | A (a compound having 10 or more and less than 20 is denoted as A)
7 | CCCOC[C@H]1C(=O)N[C@@H]([C@@H](C)CC)C(=O)N(C)CC(=O)N(C)[C@H]2C/C=C\CCN(C2=O)[C@@H](Cc2ccc(C(F)(F)F)cc2)C(=O)N(C)CC(=O)N[C@@H](CCc2ccc(C(F)(F)F)c(OC)c2)C(=O)N2C[C@H](OCC)C[C@H]2C(=O)NC2(CC(C)(C)C2)C(=O)N(C)[C@@H](C2CCCC2)C(=O)N(C)[C@H](C(=O)N(C)CC)CC(=O)N1C [PP1973] | 8.7 nM | B (a compound having 3 or more and less than 10 is denoted as B) | 0.099 nM | A (a compound having 10 or more and less than 20 is denoted as A)
8 | CCC[C@H]1C(=O)N[C@@H]([C@@H](C)CC)C(=O)N(C)[C@@H](C)C(=O)N2CC[C@H]2C(=O)N(CCC)[C@@H](Cc2ccc(C(F)(F)F)cc2)C(=O)N(C)CC(=O)N[C@@H](CCc2ccc(C(F)(F)F)c(Cl)c2)C(=O)N2CCC[C@H]2C(=O)NC2(CCC2)C(=O)N(C)[C@@H](C(CC)CC)C(=O)N(C)[C@H](C(=O)N2CCOCC2)CC(=O)N1C [PP1959] ([NMeNva]I[NMeA][Aze][NPrPhe(4-CF3)][Sar][hPhe(3-Cl-4-CF3)]P[Ac4c][NMeNva(3-Et)][NMeD]-Morpholide; lactam N-11) | 14.7 nM | B (a compound having 3 or more and less than 10 is denoted as B) | 0.55 nM | C (A compound having a KD ratio of 0.1 or more and less than 3 is denoted as C)
9 | CCCN(C)C(=O)[C@@H]1CC(=O)N(C)[C@@H](C)C(=O)N[C@@H]([C@@H](C)CC)C(=O)N(C)CC(=O)N(C)[C@H]2C/C=C\CCN(C2=O)[C@@H](Cc2ccc(C(F)(F)F)cc2)C(=O)N(C)CC(=O)N[C@@H](CCc2cc(F)c(C(F)(F)F)c(F)c2)C(=O)N2C[C@H](OCC)C[C@H]2C(=O)NC2(CC(F)(F)C2)C(=O)N(C)[C@@H](C2CCCC2)C(=O)N1C [PP1731] | 7.4 nM | A (a compound having 10 or more and less than 20 is denoted as A) | 0.07 nM | A (a compound having 10 or more and less than 20 is denoted as A)
10 | CC[C@H](C)[C@@H]1NC(=O)[C@H](CC(C)C)N(C)C(=O)C[C@@H](C(=O)N(C)C)N(C)C(=O)[C@H](C2CCCC2)N(C)C(=O)C2(CC(C)(C)C2)NC(=O)[C@@H]2CCCN2C(=O)[C@H](CCc2cc(F)c(C(F)(F)F)c(F)c2)NC(=O)CN(C)C(=O)[C@H](Cc2ccc(C(F)(F)F)cc2)N2CC/C=C\C[C@@H](C2=O)N(C)C(=O)CN(C)C1=O [PP1727] | 4 nM | A (a compound having 10 or more and less than 20 is denoted as A) | 0.13 nM | A (a compound having 10 or more and less than 20 is denoted as A)
11 | CCO[C@@H]1C[C@H]2C(=O)NC3(CC(C)(C)C3)C(=O)N(C)[C@@H](C3CCCC3)C(=O)N(C)[C@H](C(=O)N(C)C)CC(=O)N(C)[C@@H](CC3CC3)C(=O)N[C@@H]([C@@H](C)CC)C(=O)N(C)CC(=O)N(C)[C@H]3C/C=C\CCN(C3=O)[C@@H](Cc3ccc(C(F)(F)F)cc3)C(=O)N(C)CC(=O)N[C@@H](CCc3ccc(C(F)(F)F)c(Cl)c3)C(=O)N2C1 [PP1749] | 3.3 nM | A (a compound having 10 or more and less than 20 is denoted as A) | 0.039 nM | A (a compound having 10 or more and less than 20 is denoted as A)
12 | CCCN(C)C(=O)[C@@H]1CC(=O)N(C)[C@@H](COC)C(=O)N[C@@H]([C@@H](C)CC)C(=O)N(C)CC(=O)N(C)[C@H]2C/C=C\CCN(C2=O)[C@@H](Cc2ccc(C(F)(F)F)cc2)C(=O)N(C)CC(=O)N[C@@H](CCc2cc(F)c(Cl)c(F)c2)C(=O)N2C[C@H](OCC)C[C@H]2C(=O)NC2(CC(C)(C)C2)C(=O)N(C)[C@@H](C2CCCC2)C(=O)N1C [PP1763] | 13.3 nM | A (a compound having 10 or more and less than 20 is denoted as A) | 0.23 nM | A (a compound having 10 or more and less than 20 is denoted as A)
13 | CCCN(C)C(=O)[C@@H]1CC(=O)N(C)[C@@H](COC)C(=O)N[C@@H]([C@@H](C)CC)C(=O)N(C)CC(=O)N(C)[C@H]2C/C=C\CCN(C2=O)[C@@H](Cc2ccc(C(F)(F)F)cc2)C(=O)N(C)CC(=O)N[C@@H](CCc2cc(F)c(C(F)(F)F)c(F)c2)C(=O)N2C[C@H](F)C[C@H]2C(=O)NC2(CC(C)(C)C2)C(=O)N(C)[C@@H](C2CCCC2)C(=O)N1C [PP1696] | 2.9 nM | A (a compound having 10 or more and less than 20 is denoted as A) | 0.041 nM | AA (a compound having 20 or more is denoted as AA)
14 | CC[C@H](C)[C@@H]1NC(=O)[C@H](CC(C)C)N(C)C(=O)C[C@@H](C(=O)N(C)C)N(C)C(=O)[C@H](C2CCCC2)N(C)C(=O)C2(CC(C)(C)C2)NC(=O)[C@@H]2C[C@@H](C)CN2C(=O)[C@H](CCc2ccc(C(F)(F)F)c(OC)c2)NC(=O)CN(C)C(=O)[C@H](Cc2ccc(C)cc2)N2CC/C=C\C[C@@H](C2=O)N(C)C(=O)CN(C)C1=O [PP1908] | 10.1 nM | B (a compound having 3 or more and less than 10 is denoted as B) | 0.11 nM | A (a compound having 10 or more and less than 20 is denoted as A)
15 | CCO[C@@H]1C[C@H]2C(=O)NC3(CC(F)(F)C3)C(=O)N(C)[C@@H](C3CCCC3)C(=O)N(C)[C@H](C(=O)N(C)C)CC(=O)N(C)[C@@H](CC3CCC3)C(=O)N[C@@H]([C@@H](C)CC)C(=O)N(C)CC(=O)N(C)[C@H]3C/C=C\CCN(C3=O)[C@@H](Cc3ccc(C(F)(F)F)cc3)C(=O)N(C)CC(=O)N[C@@H](CCc3cc(F)c(C(F)(F)F)c(F)c3)C(=O)N2C1 [PP1742] | 1.6 nM | A (a compound having 10 or more and less than 20 is denoted as A) | 0.051 nM | A (a compound having 10 or more and less than 20 is denoted as A)
